From ChEMBL document CHEMBL1201862, “PubChem BioAssay data set” (2004)
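96-well plates; 48 h exposure; 5 concentrations. Endpoints by linear interpolation between flanking doses. Not reached: highest tested concentration assigned. GI50 marks 50% less growth.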 Calls of active or inactive are those of the source. No stated cut-off is given here; in the data, active = GI50 up to about 1.1 µM and inactive = higher.

Experiments:
Test in all cases: DTP human tumour cell line panel, 48 h
ACHN = tested on: ACHN
SW-620 = tested on: SW-620
HT-29 = tested on: HT-29
HL-60 = tested on: HL-60
KM12 = tested on: KM12
NCI-H23 = tested on: NCI-H23
UACC-257 = tested on: UACC-257
SNB-19 = tested on: SNB-19
KM-20L2 = tested on: KM-20L2
SF-295 = tested on: SF-295
NCI-H460 = tested on: NCI-H460
UACC-62 = tested on: UACC-62
OVCAR-5 = tested on: OVCAR-5
HOP-92 = tested on: HOP-92
CAKI-1 = tested on: CAKI-1
SNB-78 = tested on: SNB-78
OVCAR-4 = tested on: OVCAR-4
PC-3 = tested on: PC-3
MCF7 = tested on: MCF7
MDA-MB-435 = tested on: MDA-MB-435

Row | Compound | GI50 (ACHN) | GI50 (SW-620) | GI50 (HT-29) | GI50 (HL-60) | GI50 (KM12) | GI50 (NCI-H23) | GI50 (UACC-257) | GI50 (SNB-19) | GI50 (KM-20L2) | GI50 (SF-295) | GI50 (NCI-H460) | GI50 (UACC-62) | GI50 (OVCAR-5) | GI50 (HOP-92) | GI50 (CAKI-1) | GI50 (SNB-78) | GI50 (OVCAR-4) | GI50 (PC-3) | GI50 (MCF7) | GI50 (MDA-MB-435)
1 | CC1(C)CC(C)(C)CC(O)(C2(O)CC(C)(C)CC(C)(C)C2)C1 | > 100 µM (inactive) | > 100 µM (inactive) | > 100 µM (inactive) | > 100 µM (inactive) | > 100 µM (inactive) | > 100 µM (inactive) | > 100 µM (inactive) | > 100 µM (inactive) | > 100 µM (inactive) | > 100 µM (inactive) | > 100 µM (inactive) | > 100 µM (inactive) |  |  |  |  |  |  |  | 
2 | N#CN1CCC=C(c2cc3ccccc3[nH]2)C1 | 272 µM (inactive) | 414 µM (inactive) | > 448 µM (inactive) | 164 µM (inactive) | 161 µM (inactive) | 182 µM (inactive) | 199 µM (inactive) | > 448 µM (inactive) | > 448 µM (inactive) | 313 µM (inactive) | > 448 µM (inactive) | 201 µM (inactive) | > 448 µM (inactive) | 146 µM (inactive) | 245 µM (inactive) |  |  |  |  | 
3 | CN(C)CCn1cnc2sc3ccccc3c21 | > 100 µM (inactive) | > 100 µM (inactive) | > 100 µM (inactive) |  | > 100 µM (inactive) | > 100 µM (inactive) | > 100 µM (inactive) | > 100 µM (inactive) | > 100 µM (inactive) | > 100 µM (inactive) | > 100 µM (inactive) | > 100 µM (inactive) | > 100 µM (inactive) |  | 95.3 µM (inactive) | > 100 µM (inactive) | > 100 µM (inactive) |  |  | 
4 | Cc1cc(C2CCCCC2)n(O)c(=O)c1 [CICLOPIROX OLAMINE] | 3.97 µM (inactive) | 5.85 µM (inactive) | 9.08 µM (inactive) | 0.178 µM (active) | 4.66 µM (inactive) | 9.08 µM (inactive) | 1.62 µM (inactive) | 11.6 µM (inactive) | 12 µM (inactive) | 3.81 µM (inactive) | 2.32 µM (inactive) | 3.03 µM (inactive) | 8.28 µM (inactive) | 0.605 µM (active) |  |  |  |  |  | 
5 | C=CC1(C)/C(=N\O)C(C)(CC)C(=O)N1O (stereo unspecified) | > 100 µM (inactive) | > 100 µM (inactive) | > 100 µM (inactive) | > 100 µM (inactive) | > 100 µM (inactive) | > 100 µM (inactive) | > 100 µM (inactive) | > 100 µM (inactive) |  | > 100 µM (inactive) | > 100 µM (inactive) | > 100 µM (inactive) | > 100 µM (inactive) | > 100 µM (inactive) | > 100 µM (inactive) | > 100 µM (inactive) | > 100 µM (inactive) |  |  | 
6 | Cc1cccc(C)c1NC(=O)CCCC(=O)CC(=O)/C=C/c1ccccc1 | > 100 µM (inactive) | > 100 µM (inactive) | > 100 µM (inactive) |  | > 100 µM (inactive) | > 100 µM (inactive) | > 100 µM (inactive) | > 100 µM (inactive) | > 100 µM (inactive) |  | > 100 µM (inactive) | > 100 µM (inactive) | > 100 µM (inactive) | > 100 µM (inactive) | > 100 µM (inactive) | > 100 µM (inactive) | > 100 µM (inactive) |  |  | 
7 | CCOC(=O)c1c(C)n(-c2ccc(Cl)cc2)c2c1cc(O)c1[nH]c3c(c12)CCCC3 | 46.3 µM (inactive) | 47.3 µM (inactive) | 30.2 µM (inactive) | 34.6 µM (inactive) | 29 µM (inactive) | 48.6 µM (inactive) | 47 µM (inactive) | 46.3 µM (inactive) |  | 52.8 µM (inactive) | 47.5 µM (inactive) | 27.1 µM (inactive) | > 100 µM (inactive) | 38.5 µM (inactive) | > 100 µM (inactive) |  | 45.8 µM (inactive) | 41 µM (inactive) | 34.7 µM (inactive) | 24.9 µM (inactive)
8 | [N-]=[N+]=NCC1OCC(O)C(OCc2ccccc2)C1OCc1ccccc1 (stereo unspecified) | > 100 µM (inactive) | > 100 µM (inactive) | 36.3 µM (inactive) | 70.6 µM (inactive) | 41 µM (inactive) | > 100 µM (inactive) | 66.8 µM (inactive) | > 100 µM (inactive) |  | 79.3 µM (inactive) | 48.2 µM (inactive) | 31.9 µM (inactive) | > 100 µM (inactive) | 65.3 µM (inactive) | > 100 µM (inactive) |  | > 100 µM (inactive) | 73.1 µM (inactive) | > 100 µM (inactive) | > 100 µM (inactive)
9 | [O-][s+]1c2c(Cc3ccccc3)c(Cc3ccccc3)c1CCc1cccc(c1)CC2 | 16.7 µM (inactive) | 24.5 µM (inactive) | 11.9 µM (inactive) | 16.9 µM (inactive) | 12.2 µM (inactive) | 12.7 µM (inactive) | 14.1 µM (inactive) | 14.6 µM (inactive) |  | 13.2 µM (inactive) | 13.4 µM (inactive) | 10.9 µM (inactive) | 15.3 µM (inactive) | 13.4 µM (inactive) | 11.9 µM (inactive) |  | 5.02 µM (inactive) | 13.3 µM (inactive) | 11.1 µM (inactive) | 12.9 µM (inactive)
10 | CNS(=O)(=O)NNS(=O)(=O)c1ccc(C)cc1 | > 100 µM (inactive) | > 100 µM (inactive) | > 100 µM (inactive) | > 100 µM (inactive) | > 100 µM (inactive) | > 100 µM (inactive) | > 100 µM (inactive) | > 100 µM (inactive) | > 100 µM (inactive) | > 100 µM (inactive) | > 100 µM (inactive) | > 100 µM (inactive) | > 100 µM (inactive) | > 100 µM (inactive) | > 100 µM (inactive) |  | > 100 µM (inactive) |  |  | 
11 | CCN(C(=N)C#N)c1ccccc1 | > 100 µM (inactive) | 20.5 µM (inactive) | > 89.7 µM (inactive) | > 46.9 µM (inactive) | > 100 µM (inactive) | > 100 µM (inactive) | > 59.2 µM (inactive) | > 100 µM (inactive) | > 100 µM (inactive) | > 100 µM (inactive) | > 63.8 µM (inactive) | > 72.3 µM (inactive) | > 100 µM (inactive) | > 100 µM (inactive) | > 100 µM (inactive) |  | > 100 µM (inactive) |  |  | 
12 | NCCCN1CCN(CCCNc2ccc3ncn4c5ccccc5c(=O)c2c34)CC1 | 1.49 µM (inactive) | 1.32 µM (inactive) | 1.13 µM (inactive) | 0.861 µM (active) | 3.29 µM (inactive) | 2.51 µM (inactive) | 5.97 µM (inactive) | 0.887 µM (active) |  | 3.71 µM (inactive) | 1.31 µM (inactive) | 2.14 µM (inactive) | 3.61 µM (inactive) | 1.36 µM (inactive) | 1.14 µM (inactive) |  | 0.728 µM (active) | 1.69 µM (inactive) | 1.32 µM (inactive) | 1.46 µM (inactive)
13 | O=c1c2ccccc2nc2n1-c1ccccc1SC2 | 54.7 µM (inactive) | > 100 µM (inactive) | > 100 µM (inactive) |  | 29.5 µM (inactive) | 38.1 µM (inactive) | 39.4 µM (inactive) | > 100 µM (inactive) | > 100 µM (inactive) | > 100 µM (inactive) | 40.2 µM (inactive) | 33.7 µM (inactive) | > 100 µM (inactive) | 55.1 µM (inactive) | > 100 µM (inactive) | > 100 µM (inactive) | 64.3 µM (inactive) |  |  | 
14 | CC1(C)CC(=O)C(=CNC(N)=S)C(=O)C1 | > 100 µM (inactive) | > 100 µM (inactive) | > 100 µM (inactive) | > 100 µM (inactive) | > 100 µM (inactive) | > 100 µM (inactive) | > 100 µM (inactive) | > 100 µM (inactive) |  | > 100 µM (inactive) | > 100 µM (inactive) | > 100 µM (inactive) | > 100 µM (inactive) | > 100 µM (inactive) | > 100 µM (inactive) |  | > 100 µM (inactive) | > 100 µM (inactive) | > 100 µM (inactive) | > 100 µM (inactive)
15 | CC(C)(C)c1cc(C2=NN(c3ccccc3)C(c3ccccc3)C2)cc(C(C)(C)C)c1O (stereo unspecified) | > 100 µM (inactive) | > 100 µM (inactive) | > 100 µM (inactive) | 12.1 µM (inactive) | > 100 µM (inactive) | > 100 µM (inactive) | 35.2 µM (inactive) | > 100 µM (inactive) |  | > 100 µM (inactive) | > 100 µM (inactive) | > 100 µM (inactive) | > 100 µM (inactive) | > 100 µM (inactive) | > 100 µM (inactive) |  | > 100 µM (inactive) | > 100 µM (inactive) | 93.5 µM (inactive) | > 100 µM (inactive)
16 | Nc1nc2c(c(-c3cccc(Cl)c3)n1)COC/C2=C\c1cccc(Cl)c1 | > 100 µM (inactive) | > 100 µM (inactive) | > 100 µM (inactive) | > 100 µM (inactive) | 85.1 µM (inactive) | > 100 µM (inactive) | 47.2 µM (inactive) | > 100 µM (inactive) |  | > 100 µM (inactive) | > 100 µM (inactive) | > 100 µM (inactive) | > 100 µM (inactive) | > 100 µM (inactive) | > 100 µM (inactive) |  | > 100 µM (inactive) | > 100 µM (inactive) | > 100 µM (inactive) | > 100 µM (inactive)
17 | Nc1nc(N)c2ncn(CCOC(c3ccccc3)P(=O)(O)O)c2n1 (stereo unspecified) | > 100 µM (inactive) | > 100 µM (inactive) | > 100 µM (inactive) | > 100 µM (inactive) | > 100 µM (inactive) | > 100 µM (inactive) | > 100 µM (inactive) | > 100 µM (inactive) | > 100 µM (inactive) | > 100 µM (inactive) | > 100 µM (inactive) | > 100 µM (inactive) | > 100 µM (inactive) |  | > 100 µM (inactive) | > 100 µM (inactive) |  |  |  | 
